No end group written: not given here.
Legend:
CgA null mice = details: pre-treatment; cited from earlier work
[1] = system: WT and Chga knockout (KO) mice; assay: Response to PE or SNP and baroreflex sensitivity in unconscious mice; type: in vivo; details: KO mice, CST 40 μg/g bw iv
Method: Unconscious mice. Surgical procedures for hemodynamic measurements: Hemodynamic evaluation in both WT and KO mice was performed under general anesthesia [ketamine (100 mg/kg) and xylazine (2.5 mg/kg)] while connected to a ventilator. LV pressure was monitored by Millar micromanometer catheter of size 1.4 French (0.46 mm; Millar Instruments, Houston, Tex.); it was inserted into the LV where phasic and mean pressure was continuously monitored (Gould, Cleveland, Ohio). A venous catheter (MicroRenathane tube MRE-033; Braintree Laboratories, Braintree, Mass.) is implanted on right femoral vein for injection of peptide and other reagents. All physiologic signals were acquired by WINDAQ (Dataq Instruments, Akron, Ohio) and analyzed by BP-Analysis software (developed for own laboratory).
Assessment of baroreflex sensitivity (BRS): BRS (in milliseconds per mmHg) was assessed by both high-pressure [phenylephrine (PE) bolus] and low-pressure [sodium nitroprusside (SNP) bolus] stimuli in unconscious mice. Although conscious animals provide optimal physiological data, a host of undesirable signals are triggered by physical activities, and sleep cycle alterations in behavioral state. Therefore, we have chosen to conduct the experiments in unconscious mice to avoid some of the pitfalls encountered in awake animals. The absolute changes of HR in response to changes in SBP induced by PE or SNP were subjected to linear regression analysis to determine BRS. To test the effect of CST on BRS in KO mice, CST was injected (40 μg/g bw iv) 30 min before the injection of PE or SNP through the catheter implanted into the femoral vein.
BRS to high-pressure stimulus. High pressure BRS was evaluated by recording diminution of HR in response to PE-induced hypertension. Changes in SBP and HR were recorded continuously for 0.5 min after a bolus injection of PE (0.005 μg/g bw iv). This dose was selected from a preliminary dose-response study (0.001-0.05 μg/g bw iv).
BRS to low-pressure stimulus. This was evaluated by recording increments in HR in response to SNP-induced fall in BP. Changes in SBP and HR were recorded continuously for 0.5 min after a bolus injection of SNP (0.05 μg/g bw iv). This dose was selected from a preliminary dose-response study (0.01-0.1 μg/g bw iv).

[2] = system: Wild-type and CgA-KO mice; assay: Heart rate variability (EKG) in sedated mice; type: in vivo
Method: Animals. Six Wild-type and seven CgA-KO mice were used in this study (see example 1 for the details).
Mice were sedated by an intraperitoneal injection of a 1 μl solution per gm body weight, containing Ketamine (100 mg/ml)+Xylazine (20 mg/ml) and Acepromazine (10 mg/ml). Mice were gently strapped onto the surgical table in a fixed supine position with silk tape. Body temperature was continuously monitored on an analog thermometer, model 44TA (YSI, Ohio) using a rectal probe, and maintained between 36.5 and 38.5° C. throughout the experiment using a controlled heating box. The analog output signal fed into the chart recorder (AD Instruments, Colorado) and suitably amplified. The adequacy of sedation was regularly verified by absence of vibrissae twitching and withdrawal reflex to a noxious toe-pinch and was supplemented intraperitoneally as needed. Animals breathed ambient air spontaneously throughout the experimental run. Investigational agent, a nicotinic cholinergic receptor antagonist (8), CST was dissolved in distilled water and injected intraperitoneally at a volume of 70 μl from a 1 mM working solution.
EKG electrodes were attached to all four limbs (incl. reference electrode) via 30G stainless steel hypodermic needles (Popper & Sons, New York) so as to record standard bipolar Einthoven derivation (lead I, II and III) EKG signals. The EKG signals were bandpass-filtered between 0.1 and 3 kHz with a notch filter set at 60 Hz, and sampled at 2 kHz. The voltage output fed into a data acquisition system (PowerLab-8, AD Instruments) for eventual off-line measurements and analysis by chart and scope (Labchart 6) software. Heart rate and rhythm were also monitored continuously on an oscilloscope (Tektronix 5113, Oregon) throughout the experiment.
EKG traces were edited using the Chart® software package. High frequency noise from the EKG was removed using a 45 Hz low-pass filter to enable detection of the R-waves, whenever appropriate. A threshold electrical potential value was set for each trace and the post-threshold maximum was taken as the R-wave. Each trace was visually inspected for any undetected R-waves and these were manually inserted, while incorrectly detected R-waves or non-normal beats such as extrasystoles were deleted. Time and frequency domain analysis of HRV was performed using fast Fourier-transformation with a Hanning window. Spectral power was calculated on 50% overlapped blocks on sequences of 1024 points (beats). Time-domain parameters recorded or calculated included: mean R-R interval (in ms) [i.e., NN interval, i.e., normal-to-normal intervals]; standard deviation of all normal R-R interval (SDNN, in ms), reflecting total autonomic variability; square root mean of squared differences between adjacent normal R-R intervals (RMSSD), an index for short-term variations in inter-beat intervals, primarily of parasympathetic nature; and percentage of normal consecutive inter-beat intervals differing by >7 ms (NN7%), reflecting cardiac parasympathetic tone, were calculated directly from the sequence of interval times. NN7 is a murine-adjusted value based on PNN50 determined for humans (32). The mean HR was calculated as the mean sequence of reciprocals of the interval times. For non-linear measurements on the return map of R-R intervals (Lorenz plot), the images acquired by the chart software were imported into Image J (National Institutes of Health, Bethesda) for evaluating point dispersion of S1 and S2 (see below). The width and length of the dispersion of data in Lorenz plots reflects the level of short- and long-term beat-to-beat variability, respectively. The different frequency domain measures of HRV were computed using cut-off frequencies for power in the very low frequency (VLF), low-frequency range (LF) and high-frequency range (HF) based on human studies multiplied by a factor of ten for HR adjustment (the approximate ratio between murine and human HR) (33). […]

[3] = system: Langendorff perfused rat heart; assay: ET-1 stimulated Langendorff heart preparations
Method: ET-1 stimulated preparations—Hearts, stabilized for 20 min with KHs, were perfused for 10 min with ET-1 (1 nM) and then washed-out with KHs. After returning to control conditions, each heart was perfused with KHs containing a single concentration of either WT-Cts (33 nM), P370L-Cts (110 nM) or G364S-Cts (200 nM) plus 1 nM ET-1 for a further 10 min.

SSMKLSFRARAYGFRGPGPQL [WT-CST, catestatin]
High blood pressure in CgA null mice (CgA null mice): lowers the high blood pressure in CgA null mice to normal levels | Dampened baroreflex slope [1]: restored | Increased baseline heart rate ([2]; CgA KO mice, parenteral CST): rescued | HRV VLF power ([2]; KO mice): 2.899±1.05 ln ms^2 | Time-domain parameters of HRV (SDNN, NN7%, RMSSD) ([2]; KO mice): reversed | HRV VLF power ([2]; WT mice): 2.468±0.69 ln ms^2 | Short-term and long-term variability of HRV (Lorenz analysis) ([2]; mouse, in vivo): marked improvements | Spectral peak positions ([2]; mouse, in vivo): not visibly altered | ET-1 induced positive inotropism ([3]; ET-1 1 nM, WT-CST 33 nM, P370L-CST 110 nM, G364S-CST 200 nM): blocked | Effect on LVP and +(LVdP/dT)max ([3]; higher doses (10 nM)): decreased
